Test results as given in ChEMBL document CHEMBL1130848, “Synthesis and preliminary evaluation of (S)-2-(4'-carboxycubyl)glycine, a new selective mGluR1 antagonist” (Bioorg Med Chem Lett, 1998).

Tests used:
[1] = biological target: Metabotropic glutamate receptor 1 (Homo sapiens, UniProt Q13255); assay: Inhibitory activity against mGluR1 receptor
[2] = biological target: Metabotropic glutamate receptor 2 (Homo sapiens, UniProt Q14416); assay: Concentration required to inhibit mGluR2 receptor
Chain of Metabotropic glutamate receptor 2 (Q14416 whole entry): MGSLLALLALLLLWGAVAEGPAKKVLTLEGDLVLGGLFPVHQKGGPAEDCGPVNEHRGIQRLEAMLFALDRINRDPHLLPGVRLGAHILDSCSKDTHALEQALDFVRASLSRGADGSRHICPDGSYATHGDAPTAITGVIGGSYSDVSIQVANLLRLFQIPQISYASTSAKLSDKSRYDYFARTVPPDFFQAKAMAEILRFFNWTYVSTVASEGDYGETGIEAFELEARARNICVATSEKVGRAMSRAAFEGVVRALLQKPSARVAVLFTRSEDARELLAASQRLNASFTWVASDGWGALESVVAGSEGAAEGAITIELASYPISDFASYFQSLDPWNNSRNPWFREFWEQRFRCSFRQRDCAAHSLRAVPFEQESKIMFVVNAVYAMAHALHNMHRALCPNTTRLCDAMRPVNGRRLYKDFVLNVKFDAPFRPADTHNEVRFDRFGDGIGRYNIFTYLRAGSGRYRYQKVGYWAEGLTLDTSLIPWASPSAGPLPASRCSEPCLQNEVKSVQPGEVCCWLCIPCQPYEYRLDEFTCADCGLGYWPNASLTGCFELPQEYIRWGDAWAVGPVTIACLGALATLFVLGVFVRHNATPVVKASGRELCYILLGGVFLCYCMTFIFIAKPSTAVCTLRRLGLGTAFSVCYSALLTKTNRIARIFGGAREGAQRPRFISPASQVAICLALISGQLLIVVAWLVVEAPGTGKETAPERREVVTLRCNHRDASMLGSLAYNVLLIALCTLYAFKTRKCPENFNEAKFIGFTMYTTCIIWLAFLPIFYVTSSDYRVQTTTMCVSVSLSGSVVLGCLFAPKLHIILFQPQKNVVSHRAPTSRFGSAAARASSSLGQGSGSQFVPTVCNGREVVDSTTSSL

Chain of Metabotropic glutamate receptor 1 (Q13255 whole entry): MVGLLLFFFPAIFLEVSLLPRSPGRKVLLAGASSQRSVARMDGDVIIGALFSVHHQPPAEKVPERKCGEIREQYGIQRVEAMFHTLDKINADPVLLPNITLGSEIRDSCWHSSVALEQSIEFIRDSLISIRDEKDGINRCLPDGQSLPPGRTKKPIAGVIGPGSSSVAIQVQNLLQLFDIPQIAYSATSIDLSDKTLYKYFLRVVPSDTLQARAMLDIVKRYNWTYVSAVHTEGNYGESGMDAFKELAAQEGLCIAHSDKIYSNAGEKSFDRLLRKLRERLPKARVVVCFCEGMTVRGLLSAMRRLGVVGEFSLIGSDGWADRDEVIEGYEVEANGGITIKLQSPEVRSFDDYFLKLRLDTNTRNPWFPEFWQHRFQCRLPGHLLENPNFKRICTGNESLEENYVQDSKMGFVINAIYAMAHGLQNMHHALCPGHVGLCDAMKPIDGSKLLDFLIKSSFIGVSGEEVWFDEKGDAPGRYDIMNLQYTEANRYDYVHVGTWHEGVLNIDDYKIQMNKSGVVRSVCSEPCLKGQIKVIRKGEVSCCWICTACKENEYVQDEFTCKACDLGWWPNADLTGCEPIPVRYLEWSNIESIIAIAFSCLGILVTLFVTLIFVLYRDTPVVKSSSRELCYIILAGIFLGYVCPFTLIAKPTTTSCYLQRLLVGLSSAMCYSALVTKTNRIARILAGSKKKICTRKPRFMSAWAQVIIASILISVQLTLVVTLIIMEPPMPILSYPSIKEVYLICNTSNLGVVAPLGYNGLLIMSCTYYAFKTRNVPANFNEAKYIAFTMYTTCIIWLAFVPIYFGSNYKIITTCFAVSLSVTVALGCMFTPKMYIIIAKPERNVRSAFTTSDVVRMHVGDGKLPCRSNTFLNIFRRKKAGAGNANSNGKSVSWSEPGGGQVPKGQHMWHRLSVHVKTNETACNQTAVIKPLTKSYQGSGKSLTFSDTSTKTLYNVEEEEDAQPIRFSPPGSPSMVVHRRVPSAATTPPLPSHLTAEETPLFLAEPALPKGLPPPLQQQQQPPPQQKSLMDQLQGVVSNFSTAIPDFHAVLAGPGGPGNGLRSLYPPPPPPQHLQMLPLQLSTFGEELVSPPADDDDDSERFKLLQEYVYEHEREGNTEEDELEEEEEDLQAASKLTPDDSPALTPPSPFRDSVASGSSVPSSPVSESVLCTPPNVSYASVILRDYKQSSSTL

IC50 [1]: 232 µM
EC50 [2]: 54.9 µM
SMILES: N[C@H](C(=O)O)C12C3C4C1C1C2C3C41C(=O)O (some centres not stated)
